Test results as given in ChEMBL document CHEMBL1134210, “Synthesis and biological activities of potential metabolites of the non-nucleoside reverse transcriptase inhibitor efavirenz” (Bioorg Med Chem Lett, 2001).

molecular target: Human immunodeficiency virus type 1 reverse transcriptase (Human immunodeficiency virus 1, UniProt Q72547); experiment: Inhibitory activity against HIV-1 reverse transcriptase

Point of comparison: `O=C1Nc2c(O[C@@H]3O[C@H](C(=O)O)[C@@H](O)[C@H](O)[C@H]3O)cc(Cl)cc2[C@@](C#CC2CC2)(C(F)(F)F)O1`, IC50 9490 nM. Against it:
- O=C1Nc2c(O)cc(Cl)cc2C(C#CC2CC2)(C(F)(F)F)O1 (single isomer, unassigned) — higher, > 12500 nM
- O=C1Nc2c(O)cc(Cl)cc2[C@@](C#CC2CC2)(C(F)(F)F)O1 — 4.1-fold lower, 2340 nM
- O=C1Nc2ccc(Cl)cc2C(C#CC2(O)CC2)(C(F)(F)F)O1 (stereo not drawn) — 4.8-fold lower, 1980 nM
- O=C1Nc2c(OS(=O)(=O)O)cc(Cl)cc2[C@@](C#CC2CC2)(C(F)(F)F)O1.c1ccncc1 — within 1.5-fold, 12500 nM
- O=C1Nc2cc(O)c(Cl)cc2C(C#CC2CC2)(C(F)(F)F)O1 (stereo not drawn) — 3.9-fold lower, 2450 nM

system: Nucleic Acid; experiment: Inhibitory activity against RNA; type: functional

Point of comparison: `O=C1Nc2c(OS(=O)(=O)O)cc(Cl)cc2[C@@](C#CC2CC2)(C(F)(F)F)O1.c1ccncc1`, IC90 1010 nM. Against it:
- O=C1Nc2c(O[C@@H]3O[C@H](C(=O)O)[C@@H](O)[C@H](O)[C@H]3O)cc(Cl)cc2[C@@](C#CC2CC2)(C(F)(F)F)O1 — not separable, > 985 nM
- O=C1Nc2c(O)cc(Cl)cc2C(C#CC2CC2)(C(F)(F)F)O1 (single isomer, unassigned) — higher, > 1510 nM
- O=C1Nc2c(O)cc(Cl)cc2[C@@](C#CC2CC2)(C(F)(F)F)O1 — 16-fold lower, 63 nM
- O=C1Nc2ccc(Cl)cc2C(C#CC2(O)CC2)(C(F)(F)F)O1 (stereo not drawn) — 31-fold lower, 33 nM
- O=C1Nc2ccc(Cl)cc2[C@@](C#CC2CC2)(C(F)(F)F)O1 — 590-fold lower, 1.7 nM
- O=C1Nc2cc(O)c(Cl)cc2C(C#CC2CC2)(C(F)(F)F)O1 (stereo not drawn) — 2.4-fold lower, 422 nM
